Measurements: US11584765B2 (priority 2017, dated 2023)

Test system: C57BL/6 mice
Assay: animal or person
Format: in vivo
Conditions: Mus musculus, sc, 0.5 h, s.c. administration, 30 min, 55° C. water, read-out: ED50 (mg/kg) at 30 min on C57BL/6 mice in Warm-water Tail-flick Test

Question: With `CC(=O)Nc1ccc(CN2CCC(CCc3ccccc3)(Oc3ccccn3)CC2)cc1` [Compound 124, N-(4-((4-phenethyl-4-(pyridin-2-yloxy)piperidin-1-yl)methyl)phenyl)acetamide] as the compound, how does the ED50 read?
Answer: > 10 mg/kg

Question: `CCOCC1(CCc2sccc2C)CCN(Cc2cnn(C)c2)CC1` [Compound 268, 4-(ethoxymethyl)-1-((1-methyl-1H-pyrazol-4-yl)methyl)-4-(2-(3-methylthiophen-2-yl)ethyl)piperidine] was tested. Which ED50 did it give?
Answer: < 10 mg/kg

Question: With `CCOCC1(CCc2cccs2)CCN(Cc2ccc(NC(C)=O)cc2)C1` (centres unmarked) [Compound 177, N-(4-((3-(ethoxymethyl)-3-(2-(thiophen-2-yl)ethyl)pyrrolidin-1-yl)methyl)phenyl)acetamide] as the compound, how does the ED50 read?
Answer: < 10 mg/kg

Question: `Cl.Cn1cc(CN2CCC(CCc3cccs3)(c3ccccn3)CC2)cn1` [Compound 448] was tested. Which ED50 did it give?
Answer: < 10 mg/kg

Question: `CCOCC1(CCc2ccccc2)CCN(Cc2ccc3[nH]cnc3c2)CC1` [Compound 112, 5-((4-(ethoxymethyl)-4-phenethylpiperidin-1-yl)methyl)-1H-benzo[d]imidazole] was tested. Which ED50 did it give?
Answer: > 10 mg/kg

Question: `Cn1ccnc1CN1CCC(CCc2ccccc2)(C2CCCO2)C1` (stereo not drawn) [Compound 222, l-methyl-2-((3-phenethyl-3-(tetrahydrofuran-2-yl)pyrrolidin-1-yl)methyl)-1H-imidazole] was tested. Which ED50 did it give?
Answer: > 10 mg/kg

Question: `CCOC[C@@]1(CCc2ccccc2)CCN(C(C)c2ccc(C)nc2)C1.Cl` (stereo partly drawn) [Compound 303, 5-(1-((S)-3-(ethoxymethyl)-3-phenethylpyrrolidin-1-yl)ethyl)-2-methylpyridine HCl] was tested. Which ED50 did it give?
Answer: < 10 mg/kg

Question: How did the ED50 turn out when `CC(=O)Nc1ccc(CN2CCC(CCc3ccccc3)(CN(C)C)CC2)cc1` [Compound 56, N-(4-((4-((dimethylamino)methyl)-4-phenethylpiperidin-1-yl)methyl)phenyl)acetamide] was run?
Answer: > 10 mg/kg

Question: How did the ED50 turn out when `CCOC[C@@]1(CCc2sccc2C)CCN(Cc2cccnc2)C1` [Compound 462, (S)-3-((3-(ethoxymethyl)-3-(2-(3-methylthiophen-2-yl)ethyl)pyrrolidin-1-yl)methyl)pyridine] was run?
Answer: < 10 mg/kg

Question: For `CCOC[C@@]1(CCc2ncccn2)CCN(C(C)(C)c2ccc(C)nc2)C1` [Compound 360, (S)-2-(2-(3-(ethoxymethyl)-1-(2-(6-methylpyridin-3-yl)propan-2-yl)pyrrolidin-3-yl)ethyl)pyrimidine], which ED50 is on record?
Answer: < 10 mg/kg

Question: With `CCOC[C@@]1(CCc2ccc(F)s2)CCN(C2(c3ccc(C)nc3)CC2)C1` [Compound 435] as the compound, how does the ED50 read?
Answer: < 10 mg/kg

Question: With `CC(c1cccnc1)N1CCC(CCc2cccs2)(c2ccccn2)CC1.Cl` (centres unmarked) [Compound 447, 2-(1-(1-(pyridin-3-yl)ethyl)-4-(2-(thiophen-2-yl)ethyl)piperidin-4-yl)pyridine HCl] as the compound, how does the ED50 read?
Answer: < 10 mg/kg

Question: How did the ED50 turn out when `CCOCC1(CCc2ccc(F)cc2)CCN(Cc2ccc(C)nc2)C1` (centres unmarked) [Compound 296, 5-((3-(ethoxymethyl)-3-(4-fluoro-phenethyl)pyrrolidin-1-yl)methyl)-2-methylpyridine] was run?
Answer: < 10 mg/kg

Question: With `CCOC[C@@]1(CCc2csc(C)c2)CCN(Cc2cccnc2)C1` [Compound 323, (S)-3-((3-(ethoxymethyl)-3-(2-(5-methylthiophen-3-yl)ethyl)pyrrolidin-1-yl)methyl)pyridine] as the compound, how does the ED50 read?
Answer: < 10 mg/kg

Question: How did the ED50 turn out when `CC(=O)Nc1ccc(CN2CCC(CCc3ccccc3)(COC(F)F)CC2)cc1` [Compound 107, N-(4-((4-((difluoro-methoxy)methyl)-4-phenethylpiperidin-1-yl)methyl)phenyl)acetamide] was run?
Answer: > 10 mg/kg

Question: With `CCOCC1(CCc2ccccc2)CCN(C(C)(C)c2cccnc2)C1` (centres unmarked) [Compound 343, 3-(2-(3-(ethoxymethyl)-3-phenethylpyrrolidin-1-yl)propan-2-yl)pyridine] as the compound, how does the ED50 read?
Answer: < 10 mg/kg

Question: Which ED50 does the source give for `CCOCC1(CCc2ccccc2)CCN(Cc2ccc(NC(C)=O)c(F)c2)CC1` [Compound 84, N-(4-((4-(ethoxymethyl)-4-phenethylpiperidin-1-yl)methyl)-2-fluorophenyl)acetamide] here?
Answer: > 10 mg/kg

Question: Which ED50 does the source give for `c1ccc(C2(CCc3cccs3)CCN(Cc3cccnc3)C2)nc1` (centres unmarked) [Compound 390, 2-(1-(pyridin-3-ylmethyl)-3-(2-(thiophen-2-yl)ethyl)pyrrolidin-3-yl)pyridine] here?
Answer: > 10 mg/kg

Question: How did the ED50 turn out when `Cc1ccc(CN2[C@@H](C)CC(CCc3ccc(F)cn3)(c3ccccn3)C[C@@H]2C)cn1` (stereo partly drawn) [Compound 467, 2-(2-((2S,6S)-2,6-dimethyl-1-((6-methylpyridin-3-yl)methyl)-4-(pyridin-2-yl)piperidin-4-yl)ethyl)-5-fluoropyridine] was run?
Answer: > 10 mg/kg

Question: How did the ED50 turn out when `CCOCC1(CCc2ccsc2)CCN(Cc2cnc(C)s2)CC1` [Compound 255, 5-((4-(ethoxymethyl)-4-(2-(thiophen-3-yl)ethyl)piperidin-1-yl)methyl)-2-methylthiazole] was run?
Answer: > 10 mg/kg

Question: How did the ED50 turn out when `CCOCC1(CCc2ccccc2)CCN(Cc2ccc(CC(C)=O)cc2)CC1` [Compound 131, 1-(4-((4-(ethoxymethyl)-4-phenethylpiperidin-1-yl)methyl)phenyl)propan-2-one] was run?
Answer: > 10 mg/kg

Question: Which ED50 does the source give for `CCOCC1(CCc2ccccc2)CCN(Cc2cnn(C)c2)CC1` [Compound 245, 4-(ethoxymethyl)-1-((1-methyl-1H-pyrazol-4-yl)methyl)-4-phenethylpiperidine] here?
Answer: < 10 mg/kg

Question: Which ED50 does the source give for `CC(=O)Nc1ccc(CN2CCC(CCc3ccccc3)(c3ccccn3)C2)cc1` (centres unmarked) [Compound 30, N-(4-((3-phenethyl-3-(pyridin-2-yl)pyrrolidin-1-yl)methyl)phenyl)acetamide] here?
Answer: > 10 mg/kg

Question: How did the ED50 turn out when `CCOC[C@@]1(CCc2ccc(C)s2)CCN(Cc2ccc(C)nc2C)C1` [Compound 409, (S)-3-((3-(ethoxymethyl)-3-(2-(5-methylthiophen-2-yl)ethyl)pyrrolidin-1-yl)methyl)-2,6-dimethylpyridine] was run?
Answer: < 10 mg/kg

Question: For `CCOC[C@@]1(CCc2cccs2)CCN(C(C)(C)c2cnn(C)c2)C1.Cl` [Compound 386, (S)-4-(2-(3-(ethoxymethyl)-3-(2-(thiophen-2-yl)ethyl)pyrrolidin-1-yl)propan-2-yl)-1-methyl-1H-pyrazole HCl], which ED50 is on record?
Answer: < 10 mg/kg

Question: How did the ED50 turn out when `CC(=O)N(C)c1ccc(CN2CCC(CCc3ccccc3)(c3ccccn3)CC2)cc1` [Compound 17, N-methyl-N-(4-((4-phenethyl-4-(pyridin-2-yl)piperidin-1-yl)methyl)phenyl)acetamide] was run?
Answer: > 10 mg/kg

Question: With `COCCC1(c2ccccn2)CCN(Cc2ccc(C)nc2C)C1` (centres unmarked) [Compound 314, 3-((3-(2-methoxyethyl)-3-(pyridin-2-yl)pyrrolidin-1-yl)methyl)-2,6-dimethylpyridine] as the compound, how does the ED50 read?
Answer: > 10 mg/kg

Question: `CCOC[C@@]1(CNc2ccccc2)CCN(Cc2ccc(C)nc2)C1.Cl` [Compound 442, (R)-N-((3-(ethoxymethyl)-1-((6-methylpyridin-3-yl)methyl)pyrrolidin-3-yl)methyl)aniline HCl] was tested. Which ED50 did it give?
Answer: < 10 mg/kg

Question: Which ED50 does the source give for `CCOCC1(CCc2ccccc2)CN(CCc2ccc(NC(C)=O)cc2)C1` [Compound 99, N-(4-(2-(3-(ethoxymethyl)-3-phenethylazetidin-1-yl)ethyl)phenyl)acetamide] here?
Answer: > 10 mg/kg

Question: With `CC(=O)Nc1ccc(CN2CC[C@@](CCc3ccccc3)([C@H]3C=CCO3)C2)cc1` (single isomer, unassigned) [Compound 259] as the compound, how does the ED50 read?
Answer: < 10 mg/kg

Question: How did the ED50 turn out when `CCOCC1(CCc2ccccc2)CCN(Cc2cnc(NC(C)=O)s2)CC1` [Compound 87, N-(5-((4-(ethoxymethyl)-4-phenethylpiperidin-1-yl)methyl)thiazol-2-yl)acetamide] was run?
Answer: > 10 mg/kg

Question: For `CCOCC1(CCc2ccccc2)CCN(Cc2ccc(C(=O)NC)cc2)CC1` [Compound 90, 4-((4-(ethoxymethyl)-4-phenethylpiperidin-1-yl)methyl)-N-methylbenzamide], which ED50 is on record?
Answer: > 10 mg/kg
